One series deals with SARS-CoV-2. Briefly: SARS-CoV-2 plaque titers (progeny production). It counts as cell-based, SARS-CoV-2 (nCoV/Washington/1/2020). Conditions: 10 μM drug for 2 hours, MOI 0.5, supernatant collected 2 days after. The protocol: For SARS-CoV-2 plaque titers, cell supernatants from the infection described above were serially diluted (10-fold steps were used) and used to infect Vero E6 cells for 1 hour. Inoculum was removed and 1.25% methylcellulose DMEM solution was added to the cells and incubated for 3 days. Plates were fixed in 1:10 formalin for 1 hour, stained with crystal violet for 1 hour and were counted to determine plaque forming units (PFU)/ml.
The effect of several drugs on the production of viable progeny viruses was evaluated. Cells were treated with 10 μM of the drugs for 2 hours, infected at an MOI of 0.5 and the supernatant collected 2 days after for titration (FIG. 2C). Cepharanthine and azelastine completely eliminated SARS-CoV-2 progeny production (>5-logs decrease), while flupenthixol and desloratidine reduced viral titers by about 2-logs. Ultimately, the screen identified 20 safe-in-human drugs that are able to inhibit both OC43 and SARS-CoV-2 infection in vitro.

In a further series the test system is OC43. The series is described as follows: Drug screening: OC43 nucleoprotein staining in infected A549-mRuby cells. Conditions: for activity at 10 µM: Betacoronavirus 1, OC43, 96 h. It counts as cell-based, human beta coronavirus OC43. The method, boiled down:
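A549 cells expressing H2B-mRuby infected with OC43 at MOI 0.3 for 1 h at 33° C, then drugs added at 10 μM final and incubated 4 days at 33° C. Viral nucleoprotein immunostained and imaged; intensity normalized to cell number and no-drug controls (=100). Hits reduced staining >3 SD in both repeats without toxicity.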

A further series relates to A549-mRuby cells. Briefly: Drug screening: effect on cell growth (cell number day 4 / day 0). Conditions: 10 μM drug; for Growth_1: number of cells at day 4 divided by number of cells at day 0 / toxic_1: repeat #1; for Growth_2: number of cells at day 4 divided by number of cells at day 0 / toxic_2: repeat #2. The method, boiled down:
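A549 cells carrying an H2B-mRuby reporter were infected with OC43 at MOI 0.3 for 1 h at 33° C, then given drug at 10 μM final. Cell numbers were counted by imaging at day 0 and again at day 4 after 4 days at 33° C, 5% CO2, with the screen run twice.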

Structures are written as SMILES. Read-outs that look alike come from different tables or passages of the source.

These results are taken from US20230285405A1, “Pharmaceuticals for Treating or Preventing Nidoviruses and Picornaviruses” (priority 2020, published 2023).

In the case of `Clc1ccc2c(c1)CCc1cccnc1C2=C1CCNCC1` [Desloratadine], the “decrease of SARS-CoV-2 viral titers (progeny production)” value with SARS-CoV-2 is on record as “about 2 logs”. This molecule had a hit_1 in the series on OC43 (10 μM drug, repeat #1) of 1. Also, the hit_2 in the series on OC43 (10 μM drug, repeat #2) is on record as 1. Moreover, the activity at 10 µM in the series on OC43 (10 μM drug, MOI 0.3, 4 days, OC43 staining normalized to no-drug controls, mean of the two screen repeats, read-out: OC43_mean) came to 19.3%. Besides, the activity at 10 µM in the series with OC43 (10 μM drug, MOI 0.3, 4 days, normalized to no-drug controls in the same plate, repeat #1, read-out: OC43_1: % staining of OC43 in screen repeat #1) was determined as 13.2%. The activity at 10 µM in the series on OC43 (10 μM drug, MOI 0.3, 4 days, normalized to no-drug controls in the same plate, repeat #2, read-out: OC43_2: % staining of OC43 in screen repeat #2) came to 25.4%. For the same molecule, in the series with A549-mRuby cells, the “Growth_1: number of cells at day 4 divided by number of cells at day 0” value came out at 4.8, the toxic_1 turned out to be 0, the “Growth_2: number of cells at day 4 divided by number of cells at day 0” value amounted to 4.4 and the toxic_2 is on record as 0.

Regarding `Cl.Cl.OCCN1CCN(CCC=C2c3ccccc3Sc3ccc(C(F)(F)F)cc32)CC1` (mixture of isomers) [Flupenthixol dihydrochloride], the “decrease of SARS-CoV-2 viral titers (progeny production)” value in the series on SARS-CoV-2 is “about 2 logs”. Further, in the series with OC43, the “OC43_1: % staining of OC43 in screen repeat #1” value came out at 8.7%, the “OC43_2: % staining of OC43 in screen repeat #2” value came out at 33.3%, the hit_1 is 1 and the hit_2 amounted to 1. The same molecule registered an OC43_mean in the series on OC43 (10 μM drug, MOI 0.3, 4 days, OC43 staining normalized to no-drug controls, mean of the two screen repeats) of 21.0%. Also, in the series with A549-mRuby cells, the “Growth_1: number of cells at day 4 divided by number of cells at day 0” value turned out to be 2.1, the toxic_1 is given as 0, the “Growth_2: number of cells at day 4 divided by number of cells at day 0” value worked out at 3.3 and the toxic_2 came out at 0.
